Several values for one entry are separate records, joined by “and”; a condition that tells them apart may be missing. Equal values may be shown once. Entries after “also recorded” stand apart in the source; their conditions may differ.
Tests used:
[1] = test system: primary cultured neonatal microglia; test: LPS induced NO release, HTS setup (Griess reagent); assay type: cell-based; settings: Mus musculus, 1 h pre-treatment, 1 μg/ml LPS 48 h, read-out: IC50, LPS-induced production of NO
Procedure: Primary cultured neonatal microglia. For preparation of cultured neonatal microglia, P0-P3 mice were used. 10 brains were extracted, meninges and cerebellum were removed and put on ice with Hank's balanced salt solution (HBSS). The dissected brains were washed 3 times before adding 400 μL trypsin (0.1 mg/L) and DNAse (5 μg/L) in phosphate buffered saline (PBS). After 2 min of incubation with this solution, the reaction was blocked by adding plain medium. After removal of the medium, 1 mg DNAse was added and the cells were mechanically dissociated, with a Pasteur pipette followed by a glass pipette. The cells were centrifuged for 10 min at 129 g at 4° C. The supernatant was discarded. The pellet was resuspended in plain medium and plated (2.5 brains/flask) in Poly-L-Lysine coated flasks. […]
High throughput screening (HTS). […] Incubation with LPS and compounds was continued for 48 hours, followed by addition of 25 μl of 2-fold concentrated Griess reagent and absorbance reading at 540 nm in a plate reader (Safire2, Tecan, Maennedorf, Switzerland). Active compounds were identified by decreased Z-scores of the absorbance signal. […]
Concentration-dependent validation and viability determination. […] Each concentration was measured in duplicate. […] Finally, the resorufin fluorescence was detected at an excitation wavelength of 530 nm and emission of 570 nm. […]

[2] = test system: primary cultured neonatal microglia; test: PolyIC induced NO release, Griess assay; assay type: cell-based, mouse; settings: for NO concentration, % of stimulated control: 100 μg/ml PolyIC 24 hours
Procedure: Primary cultured neonatal microglia. For preparation of cultured neonatal microglia, P0-P3 mice were used. 10 brains were extracted, meninges and cerebellum were removed and put on ice with Hank's balanced salt solution (HBSS). The dissected brains were washed 3 times before adding 400 μL trypsin (0.1 mg/L) and DNAse (5 μg/L) in phosphate buffered saline (PBS). After 2 min of incubation with this solution, the reaction was blocked by adding plain medium. After removal of the medium, 1 mg DNAse was added and the cells were mechanically dissociated, with a Pasteur pipette followed by a glass pipette. The cells were centrifuged for 10 min at 129 g at 4° C. The supernatant was discarded. The pellet was resuspended in plain medium and plated (2.5 brains/flask) in Poly-L-Lysine coated flasks. The cells were washed after 2 days with PBS and incubated for another 7 days in plain medium. Afterwards the medium was replaced by plain medium with 33% L929 conditioned medium. After 2 days, cells were harvested by shaking them for 30 min at 150 rpm. The supernatant was centrifuged for 10 min at 129 g at 4° C. The cells were plated into a 96 well plate (100 000 cells/well, 200 μL medium per well). This procedure could be repeated 2 times with a 2 day interval.
Griess assay. Cells were seeded according to the protocols described above, after compounds and stimuli were added, 100 μl of supernatant was transferred into a new 96 well plate and 100 μl freshly mixed Griess reagent were added. Griess reagent was composed of reagent A (100 mg Naphthylethylene in 50 ml aqua dest.) and reagent B (1 g Sulfanilamide, […] H3PO4 (85%) in 44 mL aqua dest.) mixed 1:1. The solution was carefully mixed and the absorbance was determined in a microplate reader at a wavelength of 550 nm.
In order to test whether C1 decreases NO release induced by other stimulation agents besides LPS which is mimicking a bacterial infection, the inventors used IFNγ to mimic a Th1 cell response (Yau et al., 2016) and PolyIC to mimic an anti-viral response (Jiang and Pisetsky, 2006). Given that our aim is to determine the compound's effect on already stimulated microglia (LPS, IFNγ, and PolyIC), each individual experiment is normalized to its stimulated control.

[3] = test system: bone marrow derived macrophages; test: Cytokine release (IL1β, IL6, TNFα) ELISA in macrophages; assay type: cell-based, mouse; settings: 1 μg/mL LPS 48 hours
Procedure: Primary cultured macrophages. Bone marrow macrophages were isolated from C57BL/6 adult mice (P49-56) as previously described (Marim et al., 2010). In summary, mice were killed by cervical dislocation and the femurs were removed by cutting through the tibia near the pelvic bone and below the knee. Any muscle connected to the bone was carefully removed. Ice cold sterile PBS was slowly flushed through the bone and the contents were collected in a sterile 15 mL polypropylene tube on ice. After centrifugation for 10 min at 200 g at 4° C., red blood cells were lysed by adding 3-10 mL ammonium chloride solution. After a 3-5 min recovery period, the suspension was centrifuged for 10 min at 200 g at 4° C. and the supernatant was removed. Cells were plated in a 10 cm dish with plain medium containing 10 ng/mL M-CSF and cultured for 7 days to allow differentiation. 50 000 cells were plated with 200 μL medium per well in a 96 well plate.
Enzyme-linked immunosorbent assay (ELISA). Cells were seeded according to the protocols described above, after compounds and stimuli were added, the supernatant was collected, centrifuged (500 g, 5 minutes) and stored at −20° C. until analysed. The following kits from Bio-Techne (Minneapolis, USA) were used to detect IL1β, IL6 and TNFα: ELISA Mouse IL-1β/IL-1F2 Duo Set, ELISA Mouse IL-6, ELISA Mouse TNFα. ELISA assays were performed according to the manufacturers protocol.

With `COc1ccc(NC(=O)C(NC(=O)C2CCCN2C(=O)OCc2ccccc2)c2ccc(OC)cc2)cc1` (stereo not drawn) [C1] the IC50 [1] was 224 nM, the “NO concentration, % of stimulated control” value (shortened to “NO concentration, %”) ([2]; 25 nM C1) was 66% and the “NO concentration, %” value ([2]; 250 nM C1) was 29%. The “NO concentration, %” value ([2]; 2.5 μM C1) was 25%, the “NO release upon stimulation with PolyIC” value ([2]; pre-treatment with C1) was “dose dependent decrease” and the “LPS induced release of IL1β” value [3] was “not changed; also recorded: Neither the treatment with C1 nor with DMSO showed any significant changes”. For the same compound, the “LPS induced release of IL6” value [3] was “not changed; also recorded: Neither the treatment with C1 nor with DMSO showed any significant changes”, the “reduction of TNFα release” value ([3]; 2.5 μM (highest concentration) C1) was 9% and 5% and the “release of TNFα, % of positive control” value ([3]; 2.5 μM C1) was 91%.
